Assay results as given in US20030166554A1, “Treatment of CNS disorders using D-amino acid oxidase and D-aspartate oxidase antagonists” (GENSET, S.A., priority 2001, published 2003).

What was measured:
[1] = test system: PCP-induced hyperactivity in male Swiss mice; assay: Locomotor hyperactivity induced by PCP in mice (open field); type: in vivo; conditions: 30 minute open field, mean +/- s.e.m.
Method: Randomized groups of 10 male Swiss mice (9 weeks old, Elevage Janvier; Le Genest-St-Isle, France) were used for each study.
Mice were group-housed and maintained in an incubator with controlled temperature (21-22° C.) and a reversed light-dark cycle (12 h/12 h) with food and water available ad libitum. All experiments were carried out in accordance with institutional guidelines.
It is well known to those skilled in the art that phencyclidine (PCP) intoxication in mice closely mimics schizophrenia and therefore is commonly used as an animal model of schizophrenia. In the following experiments, the ability of the DAO inhibitor, sodium benzoate, to reverse PCP-induced hyperactivity was monitored. PCP and the test compound, sodium benzoate, were diluted in a 0.9% sterile aqueous solution of sodium chloride (1 mg/ml). Sodium benzoate was administered by intraperitoneal injection (IP) 2 hours before administration of PCP (0.3 mg/kg by subcutaneous (SC) injection 15 minutes before start of the test). The animals were placed into an open field, which was divided into nine equal squares. A video track (Viewpoint system) was placed over a Plexiglas open field (OF; length 52 cm×52 cm; height 40 cm) and animal activity was recorded. Over a 30 minute time period, two parameters were recorded: (a) number of crossed squares and (b) total distance walked.
A global analysis of the data was performed using a one way ANOVA followed by a Dunnett's test if possible. The level of significance was set at p<0.05. Results were expressed was mean +/− standard error of the mean (s.e.m.).

[2] = molecular target: T1, hDAAO (Homo sapiens, UniProt P14920); assay: DAAO activity of combined yeast extracts expressing hDAAO and g34872; type: biochemical; conditions: D-serine, 37° C., FIG. 1
T1 construct: made in house; host or cells: Saccharomyces cerevisiae (YPH499 and FY1679-18B strains), pESC-Leu vector, galactose induction; crude extract
T1 sequence (P14920 whole entry): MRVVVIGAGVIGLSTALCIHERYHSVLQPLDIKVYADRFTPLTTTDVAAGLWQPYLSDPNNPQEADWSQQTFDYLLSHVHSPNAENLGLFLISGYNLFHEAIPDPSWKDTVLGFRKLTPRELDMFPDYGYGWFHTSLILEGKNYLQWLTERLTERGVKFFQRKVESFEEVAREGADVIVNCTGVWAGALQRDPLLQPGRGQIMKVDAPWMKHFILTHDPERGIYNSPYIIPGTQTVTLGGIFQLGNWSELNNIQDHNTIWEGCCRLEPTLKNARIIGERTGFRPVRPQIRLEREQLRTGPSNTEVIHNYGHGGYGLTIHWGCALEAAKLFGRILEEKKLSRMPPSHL
Method: (§1) The assay mixture was typically composed of D-serine (Aldrich) 200 mM, FAD (Sigma) at 0.1 mM, sodium phosphate buffer pH8 at 75 mM, HR-peroxidase (Sigma) 1U/ml. The mixture was air-saturated just before use. o-Dianizidine (Sigma) was added in the mixture. In the typical assay 5 μl of the enzyme (DAAO and mixes) was added to 25 μl of the assay mixture, the incubation was stopped with 50 μl of 20% H2SO4. The activity was observed as absorbance of the peroxidase-oxidized o-Dianizidine at 540 nm. The reactions containing high protein concentrations were centrifuged 15 min at 14000 rpm before absorbance measuring.
Yeast cells were transformed with the plasmids constructed in pESC-Leu expression vector. One plasmid can express hDAAO, second one—C-terminal tagged g34872, third—is the vector without insertion (control). After the induction of the expression (2% galactose in the medium) these cells were incubated for 24 h, than the extracts were maid and combined as follow: different volumes of DAAO extract were mixed with either g34872-cHis6 or with the vector extracts. The same volumes of DAAO extracts were also mixed with BSA (external control). After 30min of the pre-incubation the combined extracts were used for DAAO activity measuring. All yeast extracts and BSA solution had the same total protein concentration. DAAO activity was determined with D-serine at 37° C.

[3] = test system: HR-peroxidase; assay: Peroxidase control assay (hydrogen peroxide substrate); type: biochemical; conditions: conditions identical to DAAO assay
Description: The assay of peroxidase was done in the conditions identical to those for DAAO assay; hydrogen peroxide (Gibco) was used as a substrate, and no effect of g34872 on HRP activity was confirmed.

[4] = molecular target: T2, Pig kidney DAAO (Sus scrofa, UniProt P00371); assay: DAAO kinetics in the presence of g34872 protein (D-serine substrate); type: biochemical; conditions: 20° C.
T2 construct: The crude preparation of pig kidney DAAO was purchased from Sigma; purchased Sigma; host or cells: pig kidney tissue; purified further in house (Sephadex G-50, DEAE-Sepharose, Ultragel AcA44)
T2 sequence (P00371 whole entry): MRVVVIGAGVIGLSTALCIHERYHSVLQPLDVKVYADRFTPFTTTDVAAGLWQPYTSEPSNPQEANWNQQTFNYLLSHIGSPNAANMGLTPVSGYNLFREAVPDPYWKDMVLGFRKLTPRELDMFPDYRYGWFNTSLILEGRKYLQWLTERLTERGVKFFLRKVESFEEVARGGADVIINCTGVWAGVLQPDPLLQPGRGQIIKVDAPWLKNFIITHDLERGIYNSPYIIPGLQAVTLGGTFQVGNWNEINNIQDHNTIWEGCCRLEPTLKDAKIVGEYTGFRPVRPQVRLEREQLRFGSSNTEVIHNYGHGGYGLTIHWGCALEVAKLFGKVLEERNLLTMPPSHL
Method: as §1
Pig kidney DAAO was mixed with g34872 in PBS and incubated 30 min at 20° C. DAAO concentration was 200 ng/μl and g34872 concentration was 2 μg/μl in the protein mixture. The control mixture (without g34872) was composed of 200 ng/μl DAAO and 2 μg/μl BSA. The enzymatic activity of DAAO was measured at 20° C. with D-serine, the substrate concentration used were from 0 to 100 mM, other corposants of the mixture and pH were standard.

[5] = PCP alone 0.3 mg/kg SC 15 minutes before test
[6] = sodium benzoate 400 mg/kg IP 2 hours before PCP 0.3 mg/kg SC

c1ccc(C2(N3CCCCC3)CCCCC2)cc1 [PCP, phencyclidine]
number of crossed squares [1, 5]: 977.0+/−64.6 | total distance walked [1, 5]: 18781.8+/−1447.5

O=C([O-])c1ccccc1.[Na+] [sodium benzoate]
total distance walked ([1]; sodium benzoate 125 mg/kg IP 2 hours before PCP 0.3 mg/kg SC): 14807.7+/−756.8 | number of crossed squares [1, 6]: 740.1+/−114.1 | total distance walked [1, 6]: 13521.0+/−1705.6

B1: g34872: purified recombinant g34872 protein, binding partner and activator of DAO (protein)
chain: HEDGYLEMAQRHLQRSLCPWVSYLPQPYAELEEVSSHVGKVFMARNYEFLAYEASKDRRQPLERMWTCNYNQQKDQSCNHKEITSTKAE
effect on DAO activity [2]: activates DAO | effect on HRP activity [3]: no effect | Km ([4]; g34872&DAAO mix: DAAO 200 ng/μl, g34872 2 μg/μl, D-serine 0 to 100 mM): 4 mM | effect of g34872 on DAAO (mode of action) ([4]; pig kidney DAAO, D-serine): Allosteric Activator
